According to US20060013899A1, “Topical compositions for treatment of skin disorders and methods of use thereof” (priority 2004, published 2006):

Tests used:
interleukin-8 = settings: cited from earlier work
[1] = 24 patients, 0.25% zinc pyrithione spray; cited from earlier work
[2] = only known side effect; cited from earlier work
[3] = system: eczema, psoriasis and other forms of immuno-dysfunctional dermatitis; assay: control of eczema, psoriasis and other immuno-dysfunctional dermatitis by the individual ingredients and their combination; format: in vivo, human
Description: The present invention includes zinc pyrithione, which has been used in other preparations for various types of skin conditions. Zinc pyrithione may be used to control mild to possibly moderate eczema and psoriasis.
The explanations above provide some validation of how these three ingredients may provide limited benefits, but cannot explain the dynamics of their relationship in the control of pro-inflammatory cytokines and the speed of the repair and healing process.

[4] = system: mild to moderate eczema lesions
Description: Anecdotally, zinc pyrithione appears to produce a transient histamine blocking or inhibiting mechanism.

[5] = suspended in a water solution, topical, mild to moderate eczema lesions

Substance: epigallocatechin-3-gallate
- tumor necrosis factor-alpha mediated interleukin-8 expression (interleukin-8): inhibits tumor necrosis factor-alpha mediated interleukin-8 expression in a dose related manner

Substance: zinc pyrithione
- effect on the efficacy of clobetasol propionate [1]: did not appear to enhance the efficacy of clobetasol propionate
- normal allergic reaction, share of the population [2]: less than one
- control of disease ([3]; ingredient used individually or the three combined): some degree of control benefits for mild and possibly moderate eczema, psoriasis
- control of disease in the moderate to severe ranges ([3]; zinc pyrithione by itself): fails to control these diseases in the moderate to severe ranges
- erythema ([4]; during the period of itch relief): erythema was reduced
- duration of itch relief [4, 5]: up to six
- time to relief of the itching sensation [4, 5]: fifteen to thirty
